Patent US12527325B2, “Pesticidally active diazine-amide compounds” (SYNGENTA CROP PROTECTION AG, priority 2019, dated 2026)

Assays:
Type in all cases: in vivo
Diabrotica balteata = assay: Example B1: Diabrotica balteata (Corn Root Worm); conditions: 96 h, application rate of 200 ppm, sprayed maize sprouts, L2 larvae, 4 days after infestation, read-out: control in at least one of the two categories (mortality or growth inhibition)
Description: Example B1: Diabrotica balteata (Corn Root Worm)
Maize sprouts placed onto an agar layer in 24-well microtiter plates were treated with aqueous test solutions prepared from 10′000 ppm DMSO stock solutions by spraying. After drying, the plates were infested with L2 larvae (6 to 10 per well). The samples were assessed for mortality and growth inhibition in comparison to untreated samples 4 days after infestation.

Euschistus heros = assay: Example B2: Euschistus heros (Neotropical Brown Stink Bug); conditions: 120 h, application rate of 200 ppm, sprayed soybean leaves, N2 nymphs, 5 days after infestation, read-out: control in at least one of the two categories (mortality or growth inhibition)
Description: Example B2: Euschistus heros (Neotropical Brown Stink Bug)
Soybean leaves on agar in 24-well microtiter plates were sprayed with aqueous test solutions prepared from 10′000 ppm DMSO stock solutions. After drying the leaves were infested with N2 nymphs. The samples were assessed for mortality and growth inhibition in comparison to untreated samples 5 days after infestation.

[1] = tested on: Frankliniella occidentalis; assay: Example B3: Frankliniella occidentalis (Western Flower Thrips): Feeding/Contact Activity; conditions: foliar, 168 h, application rate of 200 ppm, sprayed sunflower leaf discs, population of mixed ages, 7 days after infestation
Description: Example B3: Frankliniella occidentalis (Western Flower Thrips): Feeding/Contact Activity
Sunflower leaf discs were placed on agar in 24-well microtiter plates and sprayed with aqueous test solutions prepared from […] stock solutions. After drying the leaf discs were infested with a Frankliniella population of mixed ages. The samples were assessed for mortality 7 days after infestation.

Chilo suppressalis = assay: Example B4: Chilo suppressalis (Striped Rice Stemborer); conditions: 144 h, application rate of 200 ppm, artificial diet, L2 larvae, 6 days after infestation, read-out: control in at least one of the three categories (mortality, anti-feedant or growth inhibition)
Procedure, shortened: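 Artificial diet was treated with aqueous dilutions made from 10'000 ppm DMSO stocks, dried, then infested with L2 larvae at 6–8 per well. Mortality, antifeedant effect and growth inhibition were assessed against untreated samples 6 days after infestation.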

Plutella xylostella [2] = assay: Example B5: Plutella xylostella (Diamond Back Moth); conditions: 192 h, application rate of 200 ppm, 24-well artificial diet, eggs, 8 days after infestation, read-out: control in at least one of the two categories (mortality or growth inhibition)
Description: Example B5: Plutella xylostella (Diamond Back Moth)
24-well microtiter plates with artificial diet were treated with aqueous test solutions prepared from 10′000 ppm DMSO stock solutions by pipetting. After drying, Plutella eggs were pipetted through a plastic stencil onto a gel blotting paper and the plate was closed with it. The samples were assessed for mortality and growth inhibition in comparison to untreated samples 8 days after infestation.

Myzus persicae [3] = assay: Example B6: Myzus persicae (Green Peach Aphid): Feeding/Contact Activity; conditions: foliar, 144 h, application rate of 200 ppm, sprayed sunflower leaf discs, aphid population of mixed ages, 6 days after infestation
Description: Example B6: Myzus persicae (Green Peach Aphid): Feeding/Contact Activity
Sunflower leaf discs were placed onto agar in a 24-well microtiter plate and sprayed with aqueous test solutions prepared from 10′000 ppm DMSO stock solutions. After drying, the leaf discs were infested with an aphid population of mixed ages. The samples were assessed for mortality 6 days after infestation.

Myzus persicae [4] = assay: Example B7: Myzus persicae (Green Peach Aphid): Systemic Activity; conditions: 144 h, test rate of 24 ppm, roots of pea seedlings in test solution, 6 days
Description: Example B7: Myzus persicae (Green Peach Aphid): Systemic Activity
Roots of pea seedlings infested with an aphid population of mixed ages were placed directly into aqueous test solutions prepared from 10′000 DMSO stock solutions. The samples were assessed for mortality 6 days after placing seedlings into test solutions.

Myzus persicae [5] = assay: Example B8: Myzus persicae (Green Peach Aphid): Intrinsic Activity; conditions: 120 h, test rate of 12 ppm, 24-well sucrose solution under Parafilm, 5 days after infestation
Text: Example B8: Myzus persicae (Green Peach Aphid): Intrinsic Activity
Test compounds prepared from 10′000 ppm DMSO stock solutions were applied by pipette into 24-well microtiter plates and mixed with sucrose solution. The plates were closed with a stretched Parafilm. A plastic stencil with 24 holes was placed onto the plate and infested pea seedlings were placed directly on the Parafilm. The infested plate was closed with a gel blotting paper and another plastic stencil and then turned upside down. The samples were assessed for mortality 5 days after infestation.

Spodoptera littoralis [6] = assay: Example B9: Spodoptera littoralis (Egyptian Cotton Leaf Worm), cotton leaf disc spray; conditions: foliar, 72 h, application rate of 200 ppm, sprayed cotton leaf discs, L1 larvae, 3 days after infestation, read-out: control in at least one of the three categories (mortality, anti-feedant or growth inhibition)
Spodoptera littoralis [7] = assay: Example B10: Spodoptera littoralis (Egyptian Cotton Leaf Worm), uptake by lettuce roots from agar; conditions: 144 h, test rate of 12.5 ppm, compound in agar absorbed by lettuce roots, eggs, 6 days after infestation, read-out: control in at least one of the three categories (mortality, anti-feedant, or growth inhibition)
Text: Example B10: Spodoptera littoralis (Egyptian Cotton Leaf Worm)
Test compounds were applied by pipette from 10′000 ppm DMSO stock solutions into 24-well plates and mixed with agar. Lettuce seeds were placed onto the agar and the multi well plate was closed by another plate which contained also agar. After 7 days the compound was absorbed by the roots and the lettuce grew into the lid plate. The lettuce leaves were then cut off into the lid plate. Spodoptera eggs were pipetted through a plastic stencil onto a humid gel blotting paper and the lid plate was closed with it. The samples were assessed for mortality, anti-feedant effect and growth inhibition in comparison to untreated samples 6 days after infestation.

Plutella xylostella [8] = assay: Example B12: Plutella xylostella (Diamondback Moth), 96-well artificial diet; conditions: 216 h, application rate of 500 ppm, eggs, 9 days after infestation
Description: Example B12: Plutella xylostella (Diamondback Moth)
96-well microtiter plates containing artificial diet were treated with aqueous test solutions, prepared from 10′000 ppm DMSO stock solutions, by a liquid handling robot. After drying, eggs (˜30 per well) were infested onto a netted lid which was suspended above the diet. The eggs hatch and L1 larvae move down to the diet. The samples were assessed for mortality 9 days after infestation.

CC(NC(=O)c1cc(OC(F)F)cc(C2(C#N)CC2)c1)c1nccnc1-c1ncccn1 (stereo not drawn) [P44, 3-(1-cyanocyclopropyl)-5-(difluoromethoxy)-N-[1-(3-pyrimidin-2-ylpyrazin-2-yl)ethyl]benzamide]
≥ 80%: percent control (mortality or growth inhibition) at 200 ppm (Diabrotica balteata) | percent control (mortality or growth inhibition) at 200 ppm (Euschistus heros) | mortality at 200 ppm [1] | percent control (mortality, anti-feedant effect or growth inhibition) at 200 ppm (Chilo suppressalis) | percent control (mortality or growth inhibition) at 200 ppm (Plutella xylostella [2]) | mortality at 200 ppm (Myzus persicae [3]) | mortality at 24 ppm (Myzus persicae [4]) | mortality at 12 ppm (Myzus persicae [5]) | percent control (mortality, anti-feedant effect or growth inhibition) at 200 ppm (Spodoptera littoralis [6])

CC(NC(=O)c1cc(C(F)(F)F)cc(C(F)(F)C2CC2)c1)c1nccnc1-c1ncc(C2CC2)cn1 (stereo not drawn) [P39, 3-[cyclopropyl(difluoro)methyl]-N-[1-[3-(5-cyclopropylpyrimidin-2-yl)pyrazin-2-yl]ethyl]-5-(trifluoromethyl)benzamide]
≥ 80%: percent control (mortality or growth inhibition) at 200 ppm (Diabrotica balteata) | percent control (mortality, anti-feedant effect or growth inhibition) at 200 ppm (Chilo suppressalis) | percent control (mortality or growth inhibition) at 200 ppm (Plutella xylostella [2]) | percent control (mortality, anti-feedant effect or growth inhibition) at 200 ppm (Spodoptera littoralis [6]) | percent control (mortality, anti-feedant effect or growth inhibition) at 12.5 ppm (Spodoptera littoralis [7]) | mortality at 500 ppm (Plutella xylostella [8])
